Reference: US11065266B2, “Method of treating melanoma using an inhibitor of an atypical protein kinase C” (UNIVERSITY OF SOUTH FLORIDA, priority 2016, dated 2021)

Assays:
Assay type in all cases: cell-based, human
MeWo cells [1] = test: Inhibitor dose response curves (cell counts after 3 days)
Method: (§1) Dose curves (inhibitor concentrations vs cell population after 3 days) for ICA-1, ACPD, DND and ζ-Stat were obtained for all 3 cell lines as follows. PCS-200-013, SK-MEL-2 and MeWo cells (4×10^4) were cultured in 25 cm^2 flasks and treated with either equal volume of sterile water (vehicle control). Cells were treated every 24 h during 3 day incubation period and cells were then lifted using Trypsin-EDTA solution (1.5 mL/flask) and neutralized with the equal volume of media. Subsequently, live cells were counted using the Scepter, an automated cell counter from Millipore (Billerica, Mass.). The cell growth inhibition for all inhibitors for the two malignant cell lines (SK-MEL-2 and MeWo) were quantified by counting the viable cells at 24 hour intervals. Cell counts obtained from Scepter was compared with the counts obtained from the Cellometer Vision from Nexcelom Bioscience (Lawrence, Mass.).
(§2) Dose curves for ACPD and DNDA were obtained to investigate the effect on cell proliferation of normal and malignant cell lines over a wide range of concentrations. […] ACPD decreased proliferation by 20% for 1.5 μM (p≤0.01), 48% for 2.5 μM (p≤0.01) and 51% for 3.5 μM (p≤0.001)(FIG. 5B). DNDA decreased by 17% for 500 nM (p≤0.01), 24% for 1.5 μM(p≤0.01), 52%) for 2.5 µM (p≤0.01) and 57 for 3.5 μM (p≤0.01)(FIG. 5C) in SK-MEL-2 cells. ACPD decreased proliferation by 28% for 500 nM (p≤0.01), 41% for 1.5 μM (p≤0.01), 54% for 2.5 µM (p≤0. 01) and 58% for 3.5 μM (p≤0.01) (FIG. 5D). DNDA decreased proliferation by 37% for 500 nM (p≤0.01), 41% for 1.5 μM (p≤0.01), 46% for 2.5 μM (p≤0.01) and 48% for 3.5 μM (p≤0.01) (FIG. 5E) in the MeWo cells.

[2] = system: PCS-200-013 normal melanocyte; test: as above; conditions: for effect on cell proliferation of normal melanocytes: dose curve
Method: as §1, §2

SK-MEL-2 cells [3] = test: as above
Method: as §1, §2

SK-MEL-2 cells [4] = test: Wound healing assay; conditions: for scratch coverage in wound healing assay: two days; for wound closure: 2.5 μM, day 3 or 4, p≤0.01
Method: For the wound-healing assay, melanoma cells were seeded into 35 mm dishes in 6-well-plates. After the cells had reached 100% confluency, the wound-healing assay was performed with a sterile pipette tip (1-10 μL pipette tip) by making a scratch through the confluent monolayer. Subsequently, the cells were washed with DPBS and fresh medium (EMEM) was added to each well and the desired amount of inhibitor was added in order to achieve the final concentrations of 50 nM, 100 nM, 200 nM, 500 nM and 1 μM against the control. Cells were cultured for 48 h. In 24 hours intervals, pictures of wound closure were taken and the percentage of wound closure was calculated in three randomly chosen fields.
The scratch was even clearer after two days in 1 μM sample compared to 200 nM sample. Also the number of dead cells floating was highest in 1 μM, followed by 200 nM; whereas, floating cells were rarely observed in the control samples.
A wound healing assay was performed to investigate the effect of ACPD and DNDA on malignant melanoma cell migration in vitro. Wound healing assay is commonly used to investigate in vitro migration of cancer cells. For the wound-healing assay, melanoma cells were seeded into 35 mm dishes in 6-well-plates. After the cells had reached 100% confluency, the wound-healing assay was performed with a sterile pipette tip (1-10 μL pipette tip) by making a scratch through the confluent monolayer. Subsequently, the cells were washed with DPBS and fresh medium (EMEM) was added to each well and the desired amount of inhibitor was added. Each well was subsequently incubated with sterile water or desired amount of ICA-1, ACPD, DNDA, or c-Stat to achieve the final concentration of the half maximal inhibitory concentration (IC50) for each inhibitor. Plates were incubated at 37 ° C. and 5% CO2 and photographs of wound closure were taken utilizing a Motic AE31E microscope (40× magnification). The percentage of wound closure was calculated after 3 or 4 days.
In one set of experiments, cells were cultured for 48 h. In 24 hours intervals, pictures of wound closure were taken and the percentage of wound closure was calculated in three randomly chosen fields. […] In each figure, cells treated with ACPD 2.5 μM and DNDA 2.5 μM were compared with their respective controls. The areas of the scratch (wound) were calculated and compared to determine the statistical significance (FIG. 8C).

MeWo cells [5] = test: Western blot of protein levels

SMILES: CC(=O)C1=C(O)CCC1=O [ACPD, 2-acetyl-1,3-cyclopentanedione]
- decrease of proliferation (MeWo cells [1]; 500 nM): 28%
- decrease of proliferation (MeWo cells [1]; 1.5 μM): 41%
- decrease of proliferation (MeWo cells [1]; 2.5 μM): 54%
- decrease of proliferation (MeWo cells [1]; 3.5 μM): 58%
- effect on cell proliferation of normal melanocytes [2]: did not show a significant effect
- decrease of proliferation (SK-MEL-2 cells [3]; 1.5 μM): 20%
- decrease of proliferation (SK-MEL-2 cells [3]; 2.5 μM): 48%
- decrease of proliferation (SK-MEL-2 cells [3]; 3.5 μM): 51%
- scratch coverage in wound healing assay (SK-MEL-2 cells [4]; 200 nM): not completely covered
- scratch coverage in wound healing assay (SK-MEL-2 cells [4]; 1 μM): not completely covered
- wound closure (SK-MEL-2 cells [4]): significantly reduce the wound closure
- decrease of Bcl-2 levels (MeWo cells [5]): 25%
- decrease of CD44 (MeWo cells [5]): 34%
- decrease of PARP levels (MeWo cells [5]): 24%
- decrease of Vimentin levels (MeWo cells [5]): 38%
- decrease of β-catenin (MeWo cells [5]): 16%
- increase of Caspase-3 levels (MeWo cells [5]): 17%
- increase of E-cadherin levels (MeWo cells [5]): 35%
- increase of NF-KB p65 levels (MeWo cells [5]): 69%
- increase of cleaved PARP levels (MeWo cells [5]): 18%

SMILES: Nc1c(S(=O)(=O)O)cc2cc(S(=O)(=O)O)ccc2c1N [DNDA, 3,4-diamino-2,7-naphthalenedisulfonic acid]
- decrease of proliferation (MeWo cells [1]; 500 nM): 37%
- decrease of proliferation (MeWo cells [1]; 1.5 μM): 41%
- decrease of proliferation (MeWo cells [1]; 2.5 μM): 46%
- decrease of proliferation (MeWo cells [1]; 3.5 μM): 48%
- inhibition of cell proliferation of normal melanocytes ([2]; 3.5 μM): 13.5%
- effect on cell proliferation of normal melanocytes [2]: did not show a significant effect
- decrease of proliferation (SK-MEL-2 cells [3]; 500 nM): 17%
- decrease of proliferation (SK-MEL-2 cells [3]; 1.5 μM): 24%
- decrease of proliferation (SK-MEL-2 cells [3]; 2.5 μM): 52%
- decrease of proliferation (SK-MEL-2 cells [3]; 3.5 μM): 57%
- wound closure (SK-MEL-2 cells [4]): significantly reduce the wound closure
- decrease of Bcl-2 levels (MeWo cells [5]): 32%
- decrease of CD44 (MeWo cells [5]): 43%
- decrease of Vimentin levels (MeWo cells [5]): 45%
- decrease of β-catenin (MeWo cells [5]): 21%
- increase of Caspase-3 levels (MeWo cells [5]): 39%
- increase of E-cadherin levels (MeWo cells [5]): 29%
- increase of NF-KB p65 levels (MeWo cells [5]): 89%
- increase of PARP levels (MeWo cells [5]): 9%
- increase of cleaved PARP levels (MeWo cells [5]): 10%
